One test deals with Bacteria. Briefly: Activity of compound tested against Gram negative bacteria at concentration of 100 ug/ml; Inactive. Type of test: functional, organism-based.
Test [1] is described as follows: Activity of compound tested against Gram positive bacteria at concentration of 100 ug/ml; Inactive. It counts as functional.

Activity calls are given as the source filed them. No cut-off for these calls is given here.

Regarding `O=C(O)C1=C(C2CCCO2)S[C@@H]2[C@@H](C(=O)O)CC(=O)N12` (stereo partly drawn), the result (with Bacteria; in test [1]) was inactive.
With `O=C(O)C1=C([C@H]2CCCO2)S[C@@H]2[C@@H](C(=O)NCc3ccccc3)CC(=O)N12`, the result (with Bacteria; in test [1]) was inactive.
Consider `O=C(O)C1=C([C@H]2CCCO2)S[C@@H]2[C@H](C(=O)O)CC(=O)N12`, for which the outcome (in the test with Bacteria; in test [1]) was inactive.
Consider `CC1(C)S[C@@H]2[C@@H](C(=O)NCc3ccccc3)CC(=O)N2[C@H]1C(=O)O`, for which the outcome (in the test on Bacteria; in test [1]) was inactive.

Source of the values: ChEMBL document CHEMBL1127142, “Novel conversion reaction of -lactam to -lactam. Synthesis of -lactam analogs of penam and penem antibiotics” (Bioorg Med Chem Lett, 1993).
